Tests used:
recombinant AtCKX2 = biological target: T1, recombinant AtCKX2 (Arabidopsis thaliana, UniProt Q9FUJ3); experiment: Inhibition of cytokinin oxidase/dehydrogenase activity (PMS/MTT microtitre plate assay); assay type: biochemical; details: 30 μM iP as substrate, pH 7.4, 37° C.; means of three replicates; read-out: IC50, inhibition of recombinant AtCKX2
T1 sequence (Q9FUJ3 23-501): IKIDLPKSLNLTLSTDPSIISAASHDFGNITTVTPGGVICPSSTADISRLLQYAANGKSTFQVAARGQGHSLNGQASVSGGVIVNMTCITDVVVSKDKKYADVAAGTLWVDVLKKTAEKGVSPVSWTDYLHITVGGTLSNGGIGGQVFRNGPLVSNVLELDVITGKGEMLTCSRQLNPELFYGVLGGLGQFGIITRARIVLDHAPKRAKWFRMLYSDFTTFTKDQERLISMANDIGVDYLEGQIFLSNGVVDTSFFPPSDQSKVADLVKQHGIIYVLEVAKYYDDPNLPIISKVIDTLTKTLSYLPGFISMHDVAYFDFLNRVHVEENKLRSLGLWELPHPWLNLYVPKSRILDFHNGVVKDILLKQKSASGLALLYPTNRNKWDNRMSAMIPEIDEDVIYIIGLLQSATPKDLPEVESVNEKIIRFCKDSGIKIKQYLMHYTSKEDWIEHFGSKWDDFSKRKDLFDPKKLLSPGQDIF
In short: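 Cell-free culture medium of S. cerevisiae 23344c expressing AtCKX2 was incubated with compound (3×10^−7–3×10^−4 M) and 30 μM iP in 0.1 M KH2PO4 pH 7.4 with 1 mM MTT/0.2 mM PMS, 30 min, 37 °C, dark. A578 was read after acetic-acid stop, minus no-iP blank. IC50 came from dose-response curves, mean of three replicates.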

AHK3 = biological target: T2, AHK3 (Arabidopsis thaliana, UniProt Q9C5U1); experiment: Activation of cytokinin receptors (E. coli KMI001 beta-galactosidase reporter); assay type: cell-based; details: 28 h incubation; n.a. means no activation
T2 sequence (Q9C5U1 1-1036): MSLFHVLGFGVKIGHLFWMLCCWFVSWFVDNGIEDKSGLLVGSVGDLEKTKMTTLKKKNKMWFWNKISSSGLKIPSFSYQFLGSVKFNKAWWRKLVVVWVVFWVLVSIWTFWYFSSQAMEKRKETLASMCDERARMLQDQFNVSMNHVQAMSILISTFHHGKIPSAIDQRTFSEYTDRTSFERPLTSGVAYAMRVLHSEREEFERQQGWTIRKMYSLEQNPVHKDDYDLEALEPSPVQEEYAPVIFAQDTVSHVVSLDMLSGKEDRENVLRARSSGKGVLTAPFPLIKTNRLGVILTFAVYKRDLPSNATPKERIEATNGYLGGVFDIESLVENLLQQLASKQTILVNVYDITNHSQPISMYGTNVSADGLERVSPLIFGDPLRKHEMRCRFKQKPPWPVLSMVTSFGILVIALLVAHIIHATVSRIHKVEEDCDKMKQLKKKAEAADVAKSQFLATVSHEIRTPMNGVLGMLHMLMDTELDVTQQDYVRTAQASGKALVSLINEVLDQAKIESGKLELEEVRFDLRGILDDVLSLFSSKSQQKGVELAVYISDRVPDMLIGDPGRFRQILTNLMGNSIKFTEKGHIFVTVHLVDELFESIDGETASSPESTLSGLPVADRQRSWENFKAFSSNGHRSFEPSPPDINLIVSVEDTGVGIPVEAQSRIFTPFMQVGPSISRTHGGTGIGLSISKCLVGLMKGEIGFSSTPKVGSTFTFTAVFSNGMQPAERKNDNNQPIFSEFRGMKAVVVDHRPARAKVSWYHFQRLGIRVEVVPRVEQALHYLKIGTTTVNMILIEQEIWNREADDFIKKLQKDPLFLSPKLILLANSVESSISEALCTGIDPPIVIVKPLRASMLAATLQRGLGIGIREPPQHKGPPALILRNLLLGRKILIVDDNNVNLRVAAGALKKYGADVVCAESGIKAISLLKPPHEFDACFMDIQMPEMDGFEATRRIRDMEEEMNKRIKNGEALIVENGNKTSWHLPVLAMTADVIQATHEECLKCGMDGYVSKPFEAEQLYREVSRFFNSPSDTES
In short: (§1)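 E. coli KMI001 carrying the receptor plasmid was grown in M9 + 0.1% casamino acids at 25 °C, diluted 1:600 and treated with compound (stock solutions 10^-7–5×10^-5 M). Supernatant β-galactosidase was read by 4-methylumbelliferyl galactoside hydrolysis (1 h, 37 °C, Na2CO3 stop). EC50 came from dose-response curves, triplicate means.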

CRE1/AHK4 = CRE1/AHK4 (Arabidopsis thaliana, UniProt Q9C5U0); experiment: as above; assay type: cell-based; details: 17 h incubation; n.a. means no activation
In short: as §1

Sequence of CRE1/AHK4 (Q9C5U0 whole entry): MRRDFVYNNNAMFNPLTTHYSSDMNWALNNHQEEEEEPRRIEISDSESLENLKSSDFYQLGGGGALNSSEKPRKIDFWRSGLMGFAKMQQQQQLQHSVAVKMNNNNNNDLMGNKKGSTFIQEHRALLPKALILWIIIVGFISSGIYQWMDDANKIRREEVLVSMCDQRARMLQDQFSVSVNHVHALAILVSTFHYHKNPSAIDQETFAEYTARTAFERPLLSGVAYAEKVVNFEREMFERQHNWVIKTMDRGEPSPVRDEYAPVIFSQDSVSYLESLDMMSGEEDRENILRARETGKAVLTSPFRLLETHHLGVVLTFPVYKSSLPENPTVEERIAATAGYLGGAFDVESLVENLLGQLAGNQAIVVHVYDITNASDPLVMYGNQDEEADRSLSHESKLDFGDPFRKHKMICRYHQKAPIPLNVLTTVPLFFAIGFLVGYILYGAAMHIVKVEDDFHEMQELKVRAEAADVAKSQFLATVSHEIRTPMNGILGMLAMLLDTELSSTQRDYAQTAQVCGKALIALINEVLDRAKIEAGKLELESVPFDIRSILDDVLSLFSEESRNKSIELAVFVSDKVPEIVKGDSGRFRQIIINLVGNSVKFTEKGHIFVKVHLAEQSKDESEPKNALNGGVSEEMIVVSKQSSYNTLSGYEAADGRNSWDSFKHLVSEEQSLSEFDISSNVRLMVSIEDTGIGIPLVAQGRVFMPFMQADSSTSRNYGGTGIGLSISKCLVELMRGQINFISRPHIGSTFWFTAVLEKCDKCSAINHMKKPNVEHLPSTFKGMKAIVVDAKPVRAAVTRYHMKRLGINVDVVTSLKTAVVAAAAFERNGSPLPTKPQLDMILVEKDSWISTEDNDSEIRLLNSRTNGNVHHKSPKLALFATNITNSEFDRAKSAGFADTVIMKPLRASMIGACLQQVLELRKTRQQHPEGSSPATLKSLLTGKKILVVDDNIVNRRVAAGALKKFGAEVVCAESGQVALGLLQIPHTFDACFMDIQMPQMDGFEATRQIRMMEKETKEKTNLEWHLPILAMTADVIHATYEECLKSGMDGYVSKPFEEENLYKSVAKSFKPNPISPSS

Question: For `Fc1cccc(Nc2nc(S)nc3[nH]cnc23)c1` [Compound 83], which IC50 (recombinant AtCKX2) is on record?
Answer: The IC50 was 22.6 µM.

Question: What about the EC50 (AHK3) of the same compound?
Answer: The EC50 was greater than 50 µM.

Question: With `Clc1nc(Nc2ccccc2)c2[nH]cnc2n1` [Compound 1, 2-Chloro-6-anilinopurine] as the compound, how does the IC50 (recombinant AtCKX2) read?
Answer: Its IC50 is 22.6 µM.

Question: For `Fc1cccc(Nc2nc(Cl)nc3nc[nH]c23)c1` [Compound 6, 2-Chloro-6-(3-fluoroanilino)purine], which IC50 (recombinant AtCKX2) is on record?
Answer: Its IC50 is 12.2 µM.

Question: With `COc1cccc(Nc2nc(Cl)nc3nc[nH]c23)c1` [Compound 12, 2-Chloro-6-(3-methoxyanilino)purine] as the compound, how does the IC50 (recombinant AtCKX2) read?
Answer: The IC50 was 0.8 µM.

Question: And the EC50 (AHK3)?
Answer: Its EC50 is 9.5 µM.

Question: And the EC50 (CRE1/AHK4)?
Answer: Its EC50 is 31.3 µM.

Question: `Oc1cccc(Nc2nc(F)nc3[nH]cnc23)c1` [Compound 48] was tested. Which IC50 (recombinant AtCKX2) did it give?
Answer: Its IC50 is 11.8 µM.

Question: And the EC50 (AHK3)?
Answer: The EC50 was 15 µM.

Question: And the EC50 (CRE1/AHK4)?
Answer: Its EC50 is 49.6 µM.

Question: Which results are given for `Nc1nc(Nc2cccc(Cl)c2)c2nc[nH]c2n1` [Compound 66]?
Answer: IC50 (recombinant AtCKX2): 25.6 µM; EC50 (AHK3): 43 µM

Question: For `Fc1nc(Nc2ccccc2)c2nc[nH]c2n1` [Compound 40], which EC50 (AHK3) is on record?
Answer: The EC50 was 19 µM.

Question: What about the EC50 (CRE1/AHK4) of the same compound?
Answer: Its EC50 is 46.2 µM.

Question: For `Fc1nc(Nc2cccc(Cl)c2)c2nc[nH]c2n1` [Compound 42], which IC50 (recombinant AtCKX2) is on record?
Answer: The IC50 was 15.3 µM.

Question: And the EC50 (AHK3)?
Answer: The EC50 was 31.6 µM.

Question: And the EC50 (CRE1/AHK4)?
Answer: Its EC50 is 21 µM.

Question: Which IC50 (recombinant AtCKX2) does the source give for `COc1cccc(Nc2nc(F)nc3nc[nH]c23)c1` [Compound 51, 2-Fluoro-6-(3-methoxyanilino)purine] here?
Answer: The IC50 was 0.4 µM.

Question: And the EC50 (AHK3)?
Answer: The EC50 was 22.7 µM.

Question: And the EC50 (CRE1/AHK4)?
Answer: Its EC50 is 43 µM.

Question: `Oc1cccc(Nc2nc(Cl)nc3nc[nH]c23)c1` [Compound 9, 2-Chloro-6-(3-hydroxyanilino)purine] was tested. Which IC50 (recombinant AtCKX2) did it give?
Answer: Its IC50 is 3.5 µM.

Question: What about the EC50 (AHK3) of the same compound?
Answer: The EC50 was 2.8 µM.

Question: And the EC50 (CRE1/AHK4)?
Answer: The EC50 was 37.1 µM.

Question: What does the source list for `Clc1cccc(Nc2nc(Cl)nc3nc[nH]c23)c1` [Compound 3, 2-Chloro-6-(3-chloroanilino)purine]?
Answer: IC50 (recombinant AtCKX2): 6.3 µM; EC50 (AHK3): 20 µM; EC50 (CRE1/AHK4): 7.5 µM

Question: With `Clc1ccc(Nc2nc(Cl)nc3[nH]cnc23)cc1` [Compound 4] as the compound, how does the IC50 (recombinant AtCKX2) read?
Answer: Its IC50 is 24.1 µM.

Question: Which EC50 (AHK3) does the source give for `Nc1nc(Nc2cccc(O)c2)c2nc[nH]c2n1` [Compound 72] here?
Answer: Its EC50 is 7.7 µM.

Question: And the EC50 (CRE1/AHK4)?
Answer: Its EC50 is greater than 50 µM.
